Earlier results as cited in US20060240013A1, “Diagnostics and therapeutics for diseases associated with bile acid g-protein-coupled receptor 37 (bg37)” (BAYER HEALTHCARE AG, priority 2002, published 2006).

Molecular target: T1, BG37 receptor (Homo sapiens, UniProt Q8TDU6)
T1 sequence (Q8TDU6 1-330): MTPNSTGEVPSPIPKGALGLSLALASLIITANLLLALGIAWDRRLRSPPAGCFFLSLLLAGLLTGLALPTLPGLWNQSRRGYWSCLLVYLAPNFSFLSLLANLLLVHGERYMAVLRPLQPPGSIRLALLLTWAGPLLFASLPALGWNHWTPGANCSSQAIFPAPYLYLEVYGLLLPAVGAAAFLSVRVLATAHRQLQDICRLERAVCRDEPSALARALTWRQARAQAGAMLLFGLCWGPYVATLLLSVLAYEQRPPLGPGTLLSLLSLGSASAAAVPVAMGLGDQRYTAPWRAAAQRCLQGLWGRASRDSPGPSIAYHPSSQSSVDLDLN
Conditions: intracellular cAMP levels modulated through BG37 receptor; Maruyama et al. (2002)

Row | Structure (SMILES) | rank order of potency of bile acids
1 | C[C@H](CCC(=O)O)[C@H]1CC[C@H]2[C@@H]3[C@H](O)C[C@@H]4C[C@H](O)CC[C@]4(C)[C@H]3C[C@H](O)[C@]12C [cholic acid] | lithocholic acid>deoxycholic acid>chenodeoxycholic acid>cholic acid
2 | C[C@H](CCC(=O)O)[C@H]1CC[C@H]2[C@@H]3[C@H](O)C[C@@H]4C[C@H](O)CC[C@]4(C)[C@H]3CC[C@]12C [chenodeoxycholic acid] | lithocholic acid>deoxycholic acid>chenodeoxycholic acid>cholic acid
